# Values joined by “and” are separate entries in the source; they are usually repeats but may differ in a detail not shown here. Identical values can stand only once.
# Columns and labels:
# [1] = tested on: forearm skin; assay: Skin thickness of treated forearm measured by micrometer calipers; assay type: in vivo, human; conditions: for increase in skin thickness: topically twice daily, treated forearm, no change in untreated forearm; for appearance of treated forearm: twice daily, untreated forearm still loose, thin and wrinkled
# Description: In one of the studies related to skin changes associated with aging, skin thickness was measured by micrometer calipers as follows: The skin was grasped with a 2×6 cm metal hinge, the internal faces of the hinge were coated with emery cloth to prevent slippage, and manually squeezed to threshold subject discomfort. Combined thickness of two whole-skin layers including thickness of the two hinge leaves was measured with micrometer calipers. Thickness of the two hinge leaves was subtracted to determine the actual thickness of two whole-skin layers. Triplicate measurements on treated site were done and an average number was used for calculation of the skin thickness.
# [2] = tested on: itch / pruritus; assay: Topical application to itchy skin or scalp lesions of single subjects; assay type: in vivo, human; conditions: person
# Description: A subject, having an itchy lesion of lichen simplex chronicus on their right lower leg topically applied the above cream to the lesion.
# A typical composition suitable for topical use on hair, scalp, nail and skin comprising for example N-acetylamino acid may be formulated as follows. N-Acetyl-DL-proline 2 g was dissolved in 98 ml solution prepared from water 40 ml, ethanol 40 ml and propylene glycol 20 ml. The composition with pH 2.7 contained 2% N-acetyl-DL-proline. A subject, having itchy scalp topically applied the above composition to itchy area of scalp.
# N-Acetyl-L-lysine 2 g was dissolved in a 98 ml solution prepared from water 40 ml, ethanol 40 ml and propylene glycol 20 ml. The composition with pH 6.5 contained 2% N-acetyl-L-lysine. A subject, having an oily and pruritic scalp topically applied the above composition to the affected area of the scalp, and the area was dried with warm air to remove excess solvents.
# The subject topically applied N-acetyl-DL-proline 5% in oil-in-water cream to the itchy lesions.
# A subject with chronic nummular eczema and pruritic dry skin topically applied N-acetyl-DL-proline 5% in solution to itchy skin areas of eczema and dry skin lesions.
# A subject, having axillary itch due to use of a conventional antiperspirant topically applied N-acetyl-DL-proline 5% in solution to itchy underarm skin areas.
# The subject topically applied N-acetyl-L-glutamine 5% in a solution prepared from water 4 parts, ethanol 4 parts and propylene glycol 2 parts by volume.
# The subject topically applied N-acetyl-α-D-glucosamine 5% in a solution prepared from water 4 parts, ethanol 4 parts and propylene glycol 2 parts by volume.
# [3] = tested on: forearm skin (epidermis, papillary dermis); assay: Biological effects of topically applied N-acetyl compound on skin: test chambers on forearm, punch biopsy, histochemical staining; assay type: in vivo, human; conditions: 2% solution in water/propylene glycol, occlusive test chambers renewed twice weekly, five weeks
# Description: In order to determine biological effects of a topically applied N-acetyl compound of the instant invention, seven women and one person of ages ranging from 58 to 81 years participated in this study. Topical formulation for the study was N-acetyl-L-cysteine 2% in a solution prepared from water 80 ml and propylene glycol 20 ml. Test sites were 1 cm square sites on extensor surface of forearm, 5 cm from the antecubital crease, a grid pattern formed by Hayes Test Chambers on Hayes adhesive strips. Each test chamber, 1 cm square, contained a square piece of filter paper which was fully moistened with 0.033 ml test solution. Test chambers were impressed on the skin to leave outlines which were marked with Sanford Sharpie permanent marker. Sites were re-marked at each successive application of test solutions. Vehicle control sites were on the opposite forearm. Filter paper of each chamber was saturated with 0.033 ml solution and chambers were fixed in place with the Hayes adhesive tape that held the test and vehicle chambers. […] Punch biopsy specimens, 3 mm or 4 mm in diameter, were secured at the end of the study, and specimens were processed and analyzed. […] Epidermal thickness was measured with Micro Image Analysis System, and the mean thickness was expressed as area of epidermis/horizontal length. The thickness of papillary dermis (upper dermis) was also measured.
# [4] = ordinary storage conditions; results in a malodorous smell; cited from earlier work
# [5] = tested on: adolescent acne with multiple papules and pustules on face; assay: Topical treatment of acne; assay type: in vivo, human; conditions: 5% solution, twice daily, after a few days, subject
# Text: A subject who had adolescent acne with multiple papules and pustules on their face applied topically twice daily 5% N-acetyl-glucosamine solution.
# [6] = tested on: xerosis and dry skin on lower legs; assay: Topical treatment of xerosis and dry skin; assay type: in vivo, human; conditions: 5% cream, twice daily, one week, subject
# Text: A subject who had xerosis and dry skin on lower legs topically applied twice daily 5% N-acetyl-glucosamine cream for one week. After a few days of topical treatment, the skin became less rough and scaly, and felt smooth.
# [7] = tested on: photodamaged / photoaged skin; conditions: cited from earlier work
# [8] = 5% cream, three weeks, one subject per value
# [9] = 2% solution (water/ethanol/propylene glycol), pH 2.7, itchy scalp
# [10] = 5% in oil-in-water cream, chronic Grover's Disease
# [11] = 5% in solution, axillary itch due to antiperspirant
# [12] = 5% in solution, chronic nummular eczema and pruritic dry skin
# [13] = 10% cream, three weeks, one subject per value
# [14] = 5% in solution, acute urticaria
# [15] = 10% cream, four weeks, one subject per value
# [16] = 5% in solution of water 4, ethanol 4, propylene glycol 2 parts, chronic Grover's Disease
# [17] = 2% solution, pH 6.5, oily and pruritic scalp
# [18] = 0.1% cream, topical application for 8 to 12 months (Weiss et al., JAAD 1988)
smiles,measurement,setting,value
CC(=O)NC1CCSC1=O (racemic) [N-acetyl-DL-homocysteine thiolactone],increase in skin thickness,[1]; [8],89% and 21%
same,appearance of treated forearm,"[1]; 5% cream, three weeks","more firm, smooth, plump and minimally wrinkled when lifted"
CC(=O)N1CCCC1C(=O)O (racemic) [N-acetyl-DL-proline],scalp itch a few minutes after topical application,[2]; [9],disappeared completely
same,time scalp remained free of itch,[2]; [9],24 h
same,severe itch a few minutes after topical application,[2]; [10],disappeared completely
same,time lesions remained free of itch,[2]; [10],12 h
same,itch within a few minutes after topical application,[2]; [11],disappeared completely
same,time skin remained free of itch,[2]; [11],five
same,itch a few minutes after topical application,[2]; [12],disappeared completely
same,time lesions remained free of itch,[2]; [12],48 h
CC(=O)NC(Cc1c[nH]c2ccccc12)C(=O)O (racemic) [N-acetyl-DL-tryptophan],increase in skin thickness,"[1]; 10% cream, five weeks, one subject",12%
same,increase in skin thickness,[1]; [13],11% and 21%
same,appearance of treated forearm,"[1]; 10% cream, five weeks","more firm, smooth, plump and minimally wrinkled when lifted"
same,appearance of treated forearm,"[1]; 10% cream, three weeks","more firm, smooth, plump and minimally wrinkled when lifted"
CC(=O)N[C@H]1C(O)O[C@H](CO)[C@H](O)[C@@H]1O (stereo partly drawn) [N-acetyl-D-galactosamine],effect on urticarial lesions,[2]; [14],concomitant disappearance of urticarial lesions
same,severe itch a few minutes after topical application,[2]; [14],disappeared completely
same,time skin remained free of itch,[2]; [14],24 h
CC(=O)N[C@@H](CCCNC(=N)N)C(=O)O [N-acetyl-L-arginine],increase in skin thickness,[1]; [15],32% and 22%
same,appearance of treated forearm,"[1]; 10% cream, four weeks","more firm, smooth, plump and minimally wrinkled when lifted"
COC(=O)[C@H](CS)NC(C)=O [N-acetyl-L-cysteine methyl ester],increase in skin thickness,[1]; [8],13% and 87%
same,appearance of treated forearm,"[1]; 5% cream, three weeks","more firm, smooth, plump and minimally wrinkled when lifted"
same,increase in skin thickness,[1]; [13],26%
same,appearance of treated forearm,"[1]; 10% cream, three weeks","more firm, smooth, plump and minimally wrinkled when lifted"
CC(=O)N[C@@H](CS)C(=O)O [N-acetyl-L-cysteine],average increase in thickness of epidermis over the control,"[3]; 8 subjects aged 58 to 81, vehicle control on opposite forearm",96%
same,increase in production of hyaluronic acid in papillary dermis over the control,[3]; all test sites,47-227%
same,stability on storage,[4],degrade under ordinary storage conditions
same,increase in skin thickness,[1]; [8],14%
same,appearance of treated forearm,"[1]; 5% cream, three weeks","more firm, smooth, plump and minimally wrinkled when lifted"
CC(=O)N[C@@H](CCC(N)=O)C(=O)O [N-acetyl-L-glutamine],severe itch a few minutes after topical application,[2]; [16],disappeared completely
same,time lesions remained free of itch,[2]; [16],24 h
CC(=O)N[C@@H](CCCCN)C(=O)O [N-acetyl-L-lysine],scalp itch a few minutes after topical application,[2]; [17],disappeared completely
same,time scalp remained free of itch,[2]; [17],12 h
CCOC(=O)[C@H](Cc1ccc(O)cc1)NC(C)=O [N-acetyl-L-tyrosine ethyl ester],increase in skin thickness,[1]; [15],11% and 34%
same,appearance of treated forearm,"[1]; 10% cream, four weeks","more firm, smooth, plump and minimally wrinkled when lifted"
"CC(=O)N[C@@H]1[C@@H](O)[C@H](O)[C@@H](CO)O[C@@H]1O [N-acetyl-glucosamine, N-Acetyl-α-D-glucosamine]",effect on acne lesions,[5],most lesions became less inflamed and gradually eradicated
same,effect on xerosis and dry skin,[6],returned to normal-looking skin
same,severe itch a few minutes after topical application,[2]; [16],disappeared completely
same,time lesions remained free of itch,[2]; [16],24 h
same,increase in skin thickness,[1]; [13],37%
same,appearance of treated forearm,"[1]; 10% cream, three weeks","more firm, smooth, plump and minimally wrinkled when lifted"
CC1=C(/C=C/C(C)=C/C=C/C(C)=C/C(=O)O)C(C)(C)CCC1 [tretinoin],effect on photodamaged skin,"[7]; 0.05% in a cream, daily topical application (Kligman et al. 1986)",improve photodamaged skin
same,effect on aging skin,[7]; [18],improve clinical signs of aging skin
same,side effects,[7]; [18],burning sensation in the eyes and mild skin irritations
same,patients encountering dermatitis (side-effect),"[7]; 0.1%, daily topical application, 16 weeks (Weiss et al., JAMA 1988)",92%
same,effect on photoaged skin,"[7]; 0.1%, daily topical application, 16 weeks, compared to vehicle alone (Weiss et al., JAMA 1988)",improve photoaged skin

# Source: patent USRE44017E1, “N-acetyl aldosamines, N-acetylamino acids and related N-acetyl compounds and their topical use” (priority 1999, dated 2013)
